# According to US20220221458A1, “NOROVIRUS-BINDING PEPTIDE” (Kao Corporation, priority 2019, published 2022):
# System: norovirus VLPs (GII.4, GII.3, GII.17)
# Test: In vitro selection by cDNA display against VLPs with appearance frequency analysis of sequences
# Settings: count among peptide aptamer sequences obtained after in vitro selection cycles (7 cycles GII.4, 5 cycles GII.3 and GII.17)
substance,measurement,value
251 (SKYTAL; Designed peptide) [compound 251],Appearance Frequency,6
48 (VDSTSV; Designed peptide) [compound 48],Appearance Frequency,10
161 (WVYARR; Designed peptide) [compound 161],Appearance Frequency,7
74 (FPYARN; Designed peptide) [compound 74],Appearance Frequency,8
142 (RIVGSA; Designed peptide) [compound 142],Appearance Frequency,7
139 (RFLMRH; Designed peptide) [compound 139],Appearance Frequency,7
119 (HYRSKS; Designed peptide) [compound 119],Appearance Frequency,7
212 (MDHEMF; Designed peptide) [compound 212],Appearance Frequency,6
121 (ILISSC; Designed peptide) [compound 121],Appearance Frequency,7
111 (GGGVTT; Designed peptide) [compound 111],Appearance Frequency,7
29 (DLLNSK; Designed peptide) [compound 29],Appearance Frequency,11
49 (VETDGH; Designed peptide) [compound 49],Appearance Frequency,10
182 (GLLIPF; Designed peptide) [compound 182],Appearance Frequency,6
246 (SAMFAS; Designed peptide) [compound 246],Appearance Frequency,6
23 (LKASIR; Designed peptide) [compound 23],Appearance Frequency,12
235 (RHTQTL; Designed peptide) [compound 235],Appearance Frequency,6
147 (RSSSGR; Designed peptide) [compound 147],Appearance Frequency,7
197 (HWLRSV; Designed peptide) [compound 197],Appearance Frequency,6
63 (REESFS; Designed peptide) [compound 63],Appearance Frequency,9
170 (DSKLHN; Designed peptide) [compound 170],Appearance Frequency,6
263 (VSDPVV; Designed peptide) [compound 263],Appearance Frequency,6
3 (GHRLHS; Designed peptide) [compound 3],Appearance Frequency,21
87 (SIESCL; Designed peptide) [compound 87],Appearance Frequency,8
155 (VMVGPS; Designed peptide) [compound 155],Appearance Frequency,7
85 (LHMKPI; Designed peptide) [compound 85],Appearance Frequency,8
217 (NDHDHH; Designed peptide) [compound 217],Appearance Frequency,6
37 (WEVALH; Designed peptide) [compound 37],Appearance Frequency,11
47 (TTSHFK; Designed peptide) [compound 47],Appearance Frequency,10
125 (LASMWR; Designed peptide) [compound 125],Appearance Frequency,7
154 (TVLHHR; Designed peptide) [compound 154],Appearance Frequency,7
91 (SSLALH; Designed peptide) [compound 91],Appearance Frequency,8
21 (GKFFCH; Designed peptide) [compound 21],Appearance Frequency,12
181 (GKVTFD; Designed peptide) [compound 181],Appearance Frequency,6
67 (SKHLAG; Designed peptide) [compound 67],Appearance Frequency,9
22 (GLRYRE; Designed peptide) [compound 22],Appearance Frequency,12
143 (RRCKLL; Designed peptide) [compound 143],Appearance Frequency,7
113 (GMSCGI; Designed peptide) [compound 113],Appearance Frequency,7
27 (VHYRQT; Designed peptide) [compound 27],Appearance Frequency,12
259 (VGMHHS; Designed peptide) [compound 259],Appearance Frequency,6
229 (QVIQRL; Designed peptide) [compound 229],Appearance Frequency,6
186 (HDSRIR; Designed peptide) [compound 186],Appearance Frequency,6
